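Results reflect a 48-hour exposure of cells in 96-well plates to compound at five concentrations. The concentration for 50% growth inhibition is given as GI50.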 Activity calls are given as the source filed them. No stated cut-off is given here; in the data, active = GI50 up to about 1.1 µM and inactive = higher.
Assays:
Test in all cases: growth of human tumour cells (NCI), 48 h
[1] = tested on: CCRF-CEM
[2] = tested on: Hs-578T
[3] = tested on: UO-31
[4] = tested on: NCI-H23
[5] = tested on: RXF 393
[6] = tested on: SNB-75
[7] = tested on: SF-539
[8] = tested on: SF-268
[9] = tested on: T47D
[10] = tested on: Malme-3M
[11] = tested on: SR
[12] = tested on: SF-295
[13] = tested on: SW-620
[14] = tested on: PC-3
[15] = tested on: IGROV-1
[16] = tested on: BT-549
[17] = tested on: M14
[18] = tested on: UACC-257
[19] = tested on: HCC 2998
[20] = tested on: LOX IMVI

Compound | GI50 [1] | GI50 [2] | GI50 [3] | GI50 [4] | GI50 [5] | GI50 [6] | GI50 [7] | GI50 [8] | GI50 [9] | GI50 [10] | GI50 [11] | GI50 [12] | GI50 [13] | GI50 [14] | GI50 [15] | GI50 [16] | GI50 [17] | GI50 [18] | GI50 [19] | GI50 [20]
CC(NC(=O)c1ccccc1)NC(=O)C(C)C(=O)Nc1ccccc1 (stereo unspecified) | > 100 µM (inactive) | 32.2 µM (inactive) | > 100 µM (inactive) | > 100 µM (inactive) | 89.1 µM (inactive) | 33.3 µM (inactive) | > 100 µM (inactive) | 62.2 µM (inactive) | > 100 µM (inactive) | > 100 µM (inactive) | > 100 µM (inactive) | > 100 µM (inactive) | > 100 µM (inactive) | > 100 µM (inactive) | > 100 µM (inactive) | > 100 µM (inactive) | > 100 µM (inactive) | > 100 µM (inactive) |  | 
Nn1c(Nc2ccc(S(=O)(=O)Nc3ncccn3)cc2)nnc(/C=C/c2c(O)ccc3ccccc23)c1=O | 15.8 µM (inactive) | 48.4 µM (inactive) | 30.5 µM (inactive) | 19.8 µM (inactive) | 26.2 µM (inactive) | 22.2 µM (inactive) |  | 31.6 µM (inactive) | 23.8 µM (inactive) | 30.8 µM (inactive) | 23.4 µM (inactive) |  | 31.8 µM (inactive) | 27.7 µM (inactive) | 27.5 µM (inactive) | 22.3 µM (inactive) | 29 µM (inactive) | 20.1 µM (inactive) | 23.3 µM (inactive) | 30.3 µM (inactive)
CC(=O)O[C@@H]1[C@H](C(C)C)[C@@H](OC(C)=O)C/C(C)=C/CC[C@]2(C)O[C@@H]12 |  | > 100 µM (inactive) | > 100 µM (inactive) | > 100 µM (inactive) | > 100 µM (inactive) | > 100 µM (inactive) |  | > 100 µM (inactive) | > 100 µM (inactive) | > 100 µM (inactive) |  | > 100 µM (inactive) | > 100 µM (inactive) | > 100 µM (inactive) | > 100 µM (inactive) | > 100 µM (inactive) | > 100 µM (inactive) | > 100 µM (inactive) | > 100 µM (inactive) | > 100 µM (inactive)
O=C(/C=C/c1ccc([N+](=O)[O-])cc1)c1nc2ccccc2[nH]1 | 20 µM (inactive) | > 45.8 µM (inactive) | > 69.8 µM (inactive) |  | 40.8 µM (inactive) | 45.3 µM (inactive) | 26.9 µM (inactive) | 39.4 µM (inactive) | 29.2 µM (inactive) | > 100 µM (inactive) | 2.49 µM (inactive) | > 100 µM (inactive) | 26.2 µM (inactive) | > 64.4 µM (inactive) | 1.68 µM (inactive) | > 62.8 µM (inactive) | > 88.9 µM (inactive) | 9.08 µM (inactive) |  | 24.3 µM (inactive)
NN/C(=N\S(=O)(=O)c1cc2ccccc2o1)Nc1ccc(Cl)cc1 | 2.02 µM (inactive) | 39.8 µM (inactive) | > 100 µM (inactive) | > 100 µM (inactive) | 20.7 µM (inactive) | 13.1 µM (inactive) | > 100 µM (inactive) | 33.9 µM (inactive) | 28.2 µM (inactive) | > 100 µM (inactive) | > 100 µM (inactive) | 63.5 µM (inactive) | > 100 µM (inactive) | > 100 µM (inactive) | 53 µM (inactive) | 57.7 µM (inactive) | > 100 µM (inactive) | > 100 µM (inactive) |  | > 100 µM (inactive)
O=C(O)CC(Nc1ccccc1)C(=O)O (stereo unspecified) | > 100 µM (inactive) | > 100 µM (inactive) | > 100 µM (inactive) | > 100 µM (inactive) | > 100 µM (inactive) | > 100 µM (inactive) | > 100 µM (inactive) | > 100 µM (inactive) | > 100 µM (inactive) | > 100 µM (inactive) | > 100 µM (inactive) | > 100 µM (inactive) | > 100 µM (inactive) | > 100 µM (inactive) | > 100 µM (inactive) | > 100 µM (inactive) | > 100 µM (inactive) | > 100 µM (inactive) |  | > 100 µM (inactive)
C=CCOc1ccc(C(/N=N\c2ccc(Cl)cc2)=N/NC(=O)c2ccccc2)cc1OC | 29.5 µM (inactive) | 73.1 µM (inactive) | 54.8 µM (inactive) | 60 µM (inactive) |  | 60.3 µM (inactive) |  | > 100 µM (inactive) | 22 µM (inactive) | 51.3 µM (inactive) | > 100 µM (inactive) | > 100 µM (inactive) | > 100 µM (inactive) | 49.5 µM (inactive) | 43.8 µM (inactive) | 20.4 µM (inactive) | 73.5 µM (inactive) | 41.8 µM (inactive) | 39 µM (inactive) | 48 µM (inactive)
C/C(=N\N=C(N)N)c1c(C(=O)OCCCCCCOC(=O)c2nc3sccn3c2/C(C)=N/N=C(N)N)nc2sccn12 | 20.5 µM (inactive) | > 100 µM (inactive) | 69.5 µM (inactive) | 46.1 µM (inactive) | > 100 µM (inactive) | 44.7 µM (inactive) |  | 49.1 µM (inactive) | 16.2 µM (inactive) | 43.4 µM (inactive) | 18.3 µM (inactive) |  | > 100 µM (inactive) | > 100 µM (inactive) | > 100 µM (inactive) | > 100 µM (inactive) | > 100 µM (inactive) | > 100 µM (inactive) | > 100 µM (inactive) | 98.2 µM (inactive)
C=CCN(C(=O)CNC(=O)C(F)(F)F)c1cc(OCc2ccccc2)c2c(c1)c(C)cn2S(=O)(=O)c1ccccc1 | 0.139 µM (active) | > 100 µM (inactive) | 2.9 µM (inactive) | > 87.7 µM (inactive) | 5.51 µM (inactive) | 4.8 µM (inactive) | > 100 µM (inactive) | 6.59 µM (inactive) | 5.93 µM (inactive) | > 100 µM (inactive) |  | 23 µM (inactive) |  | 5.96 µM (inactive) | 12.1 µM (inactive) | > 100 µM (inactive) | > 100 µM (inactive) | > 27.5 µM (inactive) | > 100 µM (inactive) | 16 µM (inactive)
Cc1ccc(S(=O)(=O)N/N=C2/C3CC4CCC2C4C3)cc1 (stereo unspecified) |  | > 100 µM (inactive) | > 100 µM (inactive) | > 100 µM (inactive) | > 100 µM (inactive) | > 100 µM (inactive) | > 100 µM (inactive) | > 100 µM (inactive) | > 100 µM (inactive) | > 100 µM (inactive) |  | > 100 µM (inactive) | > 100 µM (inactive) | > 100 µM (inactive) | > 100 µM (inactive) | > 100 µM (inactive) | > 100 µM (inactive) | > 100 µM (inactive) | > 100 µM (inactive) | > 100 µM (inactive)
COc1cc2c(cc1OC)C1Cc3ccccc3CCN1CC2 (stereo unspecified) | > 100 µM (inactive) | > 100 µM (inactive) | 27.2 µM (inactive) | > 100 µM (inactive) |  | 68.5 µM (inactive) | > 100 µM (inactive) | > 100 µM (inactive) | > 100 µM (inactive) | > 100 µM (inactive) | 92.9 µM (inactive) | 81.1 µM (inactive) | > 100 µM (inactive) | 62.1 µM (inactive) | > 100 µM (inactive) | > 100 µM (inactive) | > 100 µM (inactive) | > 100 µM (inactive) | 44 µM (inactive) | > 100 µM (inactive)
Oc1ccc2ccccc2c1/N=N/c1ccc(Cl)cc1 | > 100 µM (inactive) | > 100 µM (inactive) | > 100 µM (inactive) | > 100 µM (inactive) | > 100 µM (inactive) | > 100 µM (inactive) |  | > 100 µM (inactive) | > 100 µM (inactive) | > 100 µM (inactive) | 39.5 µM (inactive) | > 100 µM (inactive) | > 100 µM (inactive) | > 100 µM (inactive) | > 100 µM (inactive) | > 100 µM (inactive) | > 100 µM (inactive) | > 100 µM (inactive) |  | 24.8 µM (inactive)
N#CC(=C1CCCCC1)c1nc2ccccc2o1 | 49.1 µM (inactive) | 58.7 µM (inactive) | 47.2 µM (inactive) | 66.8 µM (inactive) | > 100 µM (inactive) |  | 31.7 µM (inactive) | 55.2 µM (inactive) | 19.4 µM (inactive) | > 100 µM (inactive) | 37.9 µM (inactive) | > 100 µM (inactive) |  | 56.9 µM (inactive) | 83 µM (inactive) | 32.1 µM (inactive) | 80.7 µM (inactive) | > 100 µM (inactive) | 50 µM (inactive) | 
Clc1ccc(CSC2=NCCN2)cc1Cl | 5.36 µM (inactive) | 19.8 µM (inactive) | 11.4 µM (inactive) | 15.6 µM (inactive) | 14.2 µM (inactive) |  |  | 14.9 µM (inactive) | 7.19 µM (inactive) | 13 µM (inactive) |  | 36.8 µM (inactive) | 16.2 µM (inactive) | 10.4 µM (inactive) | 18.9 µM (inactive) | 18.8 µM (inactive) | 15.2 µM (inactive) | 11.1 µM (inactive) | 15.2 µM (inactive) | 13.8 µM (inactive)
COc1ccc(C2=Nc3cc(C)c(C)cc3NC(c3ccccc3)C2)cc1 (stereo unspecified) | 17.3 µM (inactive) | > 100 µM (inactive) | 57 µM (inactive) | > 100 µM (inactive) | > 100 µM (inactive) |  | > 100 µM (inactive) | > 100 µM (inactive) | 21.7 µM (inactive) | 40.5 µM (inactive) | 4.86 µM (inactive) | > 100 µM (inactive) | > 100 µM (inactive) | > 100 µM (inactive) | > 100 µM (inactive) | > 100 µM (inactive) | > 100 µM (inactive) | 34.4 µM (inactive) | > 100 µM (inactive) | 28.7 µM (inactive)

— ChEMBL document CHEMBL1201862, “PubChem BioAssay data set” (2004)
